Data: PubChem BioAssay (NCI)
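In this assay, cells in 96-well plates receive the compound at five concentrations for 48 hours. Endpoints are linearly interpolated between the surrounding concentrations. GI50 is the concentration that inhibits growth by half. Definition used: TGI = concentration required for complete inhibition of growth.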

How the values were obtained:
Experiment in all cases: DTP human tumour cell line panel, 48 h
[1] = tested on: SW-620 colon
[2] = tested on: NCI-H460 lung
[3] = tested on: NCI/ADR-RES ovarian
[4] = tested on: RXF 393 renal
[5] = tested on: HOP-92 NSCLC
[6] = tested on: MDA-MB-435
[7] = tested on: SK-MEL-2 melanoma
[8] = tested on: HT29 colon
[9] = tested on: NCI-H23 lung
[10] = tested on: K-562 leukemia
[11] = tested on: MDA-MB-231 breast
[12] = tested on: HCT-116 colon
[13] = tested on: BT-549 breast
[14] = tested on: HS 578T breast
[15] = tested on: SNB-19 CNS
[16] = tested on: COLO 205 colon
[17] = tested on: NCI-H522 lung
[18] = tested on: RPMI-8226 leukemia
[19] = tested on: SK-MEL-28 melanoma
[20] = tested on: LOX IMVI melanoma
[21] = tested on: MALME-3M melanoma
[22] = tested on: NCI-H226 lung
[23] = tested on: SK-OV-3 ovarian
[24] = tested on: UACC-257 melanoma
[25] = tested on: T-47D breast
[26] = tested on: HL-60(TB) leukemia
[27] = tested on: KM12 colon
[28] = tested on: OVCAR-3 ovarian
[29] = tested on: SN12C renal
[30] = tested on: SNB-75 CNS
[31] = tested on: TK-10 renal
[32] = tested on: SF-268 CNS
[33] = tested on: MOLT-4 leukemia
[34] = tested on: M14 melanoma
[35] = tested on: UO-31 renal
[36] = tested on: HOP-62 NSCLC
[37] = tested on: OVCAR-4 ovarian
[38] = tested on: OVCAR-8 ovarian
[39] = tested on: IGROV1 ovarian
[40] = tested on: CAKI-1 renal
[41] = tested on: DU-145 prostate
[42] = tested on: 786-0 renal
[43] = tested on: HCT-15 colon
[44] = tested on: A498 renal
[45] = tested on: OVCAR-5 ovarian
[46] = tested on: PC-3 prostate
[47] = tested on: ACHN renal
[48] = tested on: MCF7 breast
[49] = tested on: UACC-62 melanoma
[50] = tested on: SK-MEL-5 melanoma
[51] = tested on: SF-539 CNS
[52] = tested on: CCRF-CEM leukemia
[53] = tested on: U251 CNS
[54] = tested on: SF-295 CNS
[55] = tested on: A549 NSCLC
[56] = tested on: HCC-2998 colon
[57] = tested on: EKVX NSCLC

With `O=C(COc1cccc(/C=C2\Oc3ccc4ccccc4c3C2=O)c1)c1ccc(Cl)cc1` the GI50 [1] was 11.7 µM, the TGI [1] was 88.3 µM and the GI50 [2] was over 100 µM. The TGI [2] was over 100 µM, the GI50 [3] was over 100 µM and the TGI [3] was over 100 µM. The GI50 [4] was 25 µM, the TGI [4] was 61.6 µM and the GI50 [5] was over 100 µM. For the same molecule, the TGI [5] was over 100 µM, the GI50 [6] was 51 µM and the TGI [6] was over 100 µM. For the same molecule, the GI50 [7] was over 100 µM, the TGI [7] was over 100 µM and the GI50 [8] was over 100 µM. For the same molecule, the TGI [8] was over 100 µM, the GI50 [9] was 30.5 µM and the TGI [9] was over 100 µM. It also gave a GI50 [10] of 10.8 µM, a TGI [10] of 25.5 µM and a GI50 [11] of 43.5 µM. The TGI [11] was over 100 µM, the GI50 [12] was 2.97 µM and the TGI [12] was 10.5 µM. The GI50 [13] was 20.5 µM, the TGI [13] was 61.7 µM and the GI50 [14] was 50 µM. The TGI [14] was over 100 µM, the GI50 [15] was over 100 µM and the TGI [15] was over 100 µM. It also gave a GI50 [16] of 33.6 µM, a TGI [16] of over 100 µM and a GI50 [17] of 6.3 µM. The TGI [17] was 23.2 µM, the GI50 [18] was 1.66 µM and the TGI [18] was 6.62 µM. The GI50 [19] was over 100 µM, the TGI [19] was over 100 µM and the GI50 [20] was 8.7 µM. The TGI [20] was 21.9 µM, the GI50 [21] was 22.4 µM and the TGI [21] was over 100 µM. The GI50 [22] was 70.6 µM, the TGI [22] was over 100 µM and the GI50 [23] was over 100 µM. For the same molecule, the TGI [23] was over 100 µM, the GI50 [24] was over 100 µM and the TGI [24] was over 100 µM. It also gave a GI50 [25] of 15.3 µM, a TGI [25] of 52.4 µM and a GI50 [26] of 16.1 µM. It also gave a TGI [26] of 90.9 µM, a GI50 [27] of 30.2 µM and a TGI [27] of over 100 µM. The GI50 [28] was 19.8 µM, the TGI [28] was 48.6 µM and the GI50 [29] was 16.8 µM. It also gave a TGI [29] of 37.5 µM, a GI50 [30] of 29.4 µM and a TGI [30] of 99.4 µM. It also gave a GI50 [31] of over 100 µM, a TGI [31] of over 100 µM and a GI50 [32] of 23.1 µM. For the same molecule, the TGI [32] was 79.5 µM, the GI50 [33] was 3.13 µM and the TGI [33] was 11.1 µM. It also gave a GI50 [34] of 18.1 µM, a TGI [34] of 43 µM and a GI50 [35] of 50.2 µM. The TGI [35] was over 100 µM, the GI50 [36] was 7.09 µM and the TGI [36] was 32.4 µM. It also gave a GI50 [37] of 5.56 µM, a TGI [37] of over 100 µM and a GI50 [38] of 15.4 µM. For the same molecule, the TGI [38] was 41.9 µM, the GI50 [39] was 0.246 µM and the TGI [39] was 9.14 µM. For the same molecule, the GI50 [40] was over 100 µM, the TGI [40] was over 100 µM and the GI50 [41] was 39.6 µM. For the same molecule, the TGI [41] was over 100 µM, the GI50 [42] was 4.54 µM and the TGI [42] was 19 µM. The GI50 [43] was 33 µM, the TGI [43] was over 100 µM and the GI50 [44] was over 100 µM. For the same molecule, the TGI [44] was over 100 µM, the GI50 [45] was over 100 µM and the TGI [45] was over 100 µM. It also gave a GI50 [46] of 52.1 µM, a TGI [46] of over 100 µM and a GI50 [47] of over 100 µM. The TGI [47] was over 100 µM, the GI50 [48] was 10.7 µM and the TGI [48] was 22.6 µM. The GI50 [49] was 81.9 µM, the TGI [49] was over 100 µM and the GI50 [50] was 79.2 µM. It also gave a TGI [50] of over 100 µM, a GI50 [51] of over 100 µM and a TGI [51] of over 100 µM. The GI50 [52] was 2.92 µM, the TGI [52] was 8.39 µM and the GI50 [53] was 27.2 µM. The TGI [53] was over 100 µM, the GI50 [54] was over 100 µM and the TGI [54] was over 100 µM. The GI50 [55] was over 100 µM, the TGI [55] was over 100 µM and the GI50 [56] was over 100 µM. It also gave a TGI [56] of over 100 µM, a GI50 [57] of over 100 µM and a TGI [57] of over 100 µM.
